In series [1] the target is T1, Heat shock protein HSP90 (Homo sapiens, UniProt P07900+P08238). In words: Binding affinity to recombinant His6-tagged HSP90 C-domain (unknown origin) (553 to 732 residues) expressed in Escherichia coli BL21 (DE3) (DNAY) cells assessed as dissociation constant by 15N-1H TROSY-HSQC NMR spectroscopy.
Series [2] addresses T1, Heat shock protein HSP90. Nature of the series: Binding affinity to HSP90 C-terminal domain (unknown origin) by biochemical assay. The series is classed as protein assay.
Series [3] addresses T1, Heat shock protein HSP90. In words: Binding affinity to recombinant His6-tagged HSP90 C-domain (unknown origin) (553 to 732 residues) expressed in Escherichia coli BL21 (DE3) (DNAY) cells assessed as chemical shift perturbation at protein to compound ratio of 1:1.6 by 15N-1H TROSY-HSQC NMR spectroscopy.
The nature of series [4]: Solubility of compound in water. It counts as physicochemical. The conditions noted are these: buffer.

In ChEMBL document CHEMBL4732023, “Using NMR to identify binding regions for N and C-terminal Hsp90 inhibitors using Hsp90 domains” (RSC Med Chem, 2021) one finds Kd, Activity and solubility data, which are given here for three molecules.

The term Kd denotes the concentration at which binding is half-saturated. Usually solubility stands for the concentration that dissolves in the medium under given conditions.

Converted amounts (≈) assume the structure as drawn. The source made the active and inactive calls. The rule behind the calls is not given here. Where a SMILES comes first, the peptide text is derived from it. [ ]: non-standard residue; d: D form. dAla(4-thiazolyl) = N[C@H](Cc1cscn1)C(=O)O; dDip = N[C@@H](C(=O)O)C(c1ccccc1)c1ccccc1; NMeV = CN[C@H](C(=O)O)C(C)C

Turning to `NCCCC[C@@H]1NC(=O)[C@H](Cc2ccccc2)NC(=O)[C@H](Cc2ccc(O)cc2)NC(=O)[C@H](CO)NC(=O)[C@H](CC(N)=O)NC1=O` (cyclo(KNSYF)), the figures for the Kd at Heat shock protein HSP90 [1] and at Heat shock protein HSP90 [2] were 19.8 µM and 45 µM, respectively. In addition, on Heat shock protein HSP90 [3], the outcome was Active.
With `CC(C)C[C@@H]1NC(=O)[C@H](C(C)C)N(C)C(=O)[C@@H](CC(C)C)NC(=O)[C@@H](Cc2cscn2)NC(=O)[C@@H](C(c2ccccc2)c2ccccc2)NC1=O` (cyclo(L[dDip][dAla(4-thiazolyl)][dL][NMeV])), the outcome on Heat shock protein HSP90 [1] was Active. In addition, the solubility in series [4] was determined as 200 µM (≈ 143 µg/mL).
For the molecule `COc1cc([C@H]2Oc3cc([C@H]4Oc5cc(O)cc(O)c5C(=O)[C@@H]4O)ccc3O[C@@H]2CO)ccc1O` [SILYBIN A], the Kd at Heat shock protein HSP90 [2] came to 500 µM.
